From patent publication US20240051997A1, “SAP AND PEPTIDOMIMETIC COMPOSITIONS FOR REDUCING SYMPTOMS OF INFLAMMATION” (Arch Biosurgery, Inc., priority 2018, published 2024)

Test system: Human THP-1 cells
Experiment: Cytokine release by THP-1 cells stimulated with RADA-16 or LPS (PROTEOME PROFILER Array)
Format: cell-based
Protocol: The anti-inflammatory effect of a SAP was examined using an in vitro assay to assess cytokine release by human THP-1 cells in the presence of SAP. Measurement of THP-1 cell activation in response to antigen was assessed by cytokine release.
Human THP-1 cells in culture media (1×10^6 cells in 1 ml of Culture medium) were exposed to the self-assembling peptide RADARADARADARADA (“RADA-16”; SEQ ID NO: 1), at a concentration of 1 μg/well, 10 μg/well, or 100 μg/well.
Human THP-1 cells in the absence of RADA-16 were used as a control to assess the baseline level of cytokine production in “resting” non-actived THP-1 cells.
To assess cytokine release upon THP-1 cell activation, lipopolysaccharides (LPS) from Salmonella typhimurium (catalog no. L-7261; Sigma-Aldrich, St. Louis, MO) were added to THP-1 cells, at a concentration of 1 μg/ml.
The release of cytokines in response to exposure of THP-1 cells to RADA-16 (SEQ ID NO: 1) or LPS was measured using the PROTEOME PROFILER™ Array kit, commercially available as a test strip kit for detection of cytokines in solution (R&D Systems, Inc., Catalog Number ARY005). The assay was carried out according to the manufacturer's guide lines.

Sequence: RADARADARADARADA [RADA-16, self-assembling peptide]
- C5a (Complement Component 5a) release (1 mcg (1 μg/well) RADA-16): 0
- CD40 Ligand (CD154) release (1 mcg (1 μg/well) RADA-16): 0
- G-CSF (CSF −, CSF-3) release (1 mcg (1 μg/well) RADA-16): 0
- GM-CSF (CSF |, CSF-2) release (1 mcg (1 μg/well) RADA-16): 0
- GRO | (CXCL1) release (1 mcg (1 μg/well) RADA-16): 0
- I-309 (CCL1) release (1 mcg (1 μg/well) RADA-16): 0
- I-TAC (CXCL11) release (1 mcg (1 μg/well) RADA-16): 0
- IFN-• (Type II IFN) release (1 mcg (1 μg/well) RADA-16): 0
- IL-1 alpha (IL-1F1) release (1 mcg (1 μg/well) RADA-16): 0
- IL-1 beta (IL-1F2) release (1 mcg (1 μg/well) RADA-16): 0
- IL-1ra (IL-1F3) release (1 mcg (1 μg/well) RADA-16): 22.59
- IL-2 release (1 mcg (1 μg/well) RADA-16): 0
- IL-4 release (1 mcg (1 μg/well) RADA-16): 0
- IL-5 release (1 mcg (1 μg/well) RADA-16): 0
- IL-6 release (1 mcg (1 μg/well) RADA-16): 0
- IL-8 (CXCL8) release (1 mcg (1 μg/well) RADA-16): 0
- IL-10 release (1 mcg (1 μg/well) RADA-16): 0
- IL-12 p 70 release (1 mcg (1 μg/well) RADA-16): 0
- IL-13 release (1 mcg (1 μg/well) RADA-16): 0
- IL-16 (LCF) release (1 mcg (1 μg/well) RADA-16): 0
- IL-17E release (1 mcg (1 μg/well) RADA-16): 0
- IL-17 release (1 mcg (1 μg/well) RADA-16): 0
- IL-23 release (1 mcg (1 μg/well) RADA-16): 0
- IL-27 release (1 mcg (1 μg/well) RADA-16): 0
- IL-32 release (1 mcg (1 μg/well) RADA-16): 0
- IP-10 (CXCL10) release (1 mcg (1 μg/well) RADA-16): 0
- MCP-1 (CCL2) release (1 mcg (1 μg/well) RADA-16): 0
- MIP-1 | (CCL3) release (1 mcg (1 μg/well) RADA-16): 0
- MIP-1− (CCL4) release (1 mcg (1 μg/well) RADA-16): 0
- SDF-1 (CXCL12) release (1 mcg (1 μg/well) RADA-16): 0
- TNF- | (TNFSF2) release (1 mcg (1 μg/well) RADA-16): 0
- sICAM-1 (CD54) release (1 mcg (1 μg/well) RADA-16): 0
- sTREM-1 release (1 mcg (1 μg/well) RADA-16): 0
- C5a (Complement Component 5a) release (10 mcg (10 μg/well) RADA-16): 0
- CD40 Ligand (CD154) release (10 mcg (10 μg/well) RADA-16): 0
- G-CSF (CSF −, CSF-3) release (10 mcg (10 μg/well) RADA-16): 0
- GM-CSF (CSF |, CSF-2) release (10 mcg (10 μg/well) RADA-16): 0
- GRO | (CXCL1) release (10 mcg (10 μg/well) RADA-16): 0
- I-309 (CCL1) release (10 mcg (10 μg/well) RADA-16): 0
- I-TAC (CXCL11) release (10 mcg (10 μg/well) RADA-16): 0
- IFN-• (Type II IFN) release (10 mcg (10 μg/well) RADA-16): 0
- IL-1 alpha (IL-1F1) release (10 mcg (10 μg/well) RADA-16): 0
- IL-1 beta (IL-1F2) release (10 mcg (10 μg/well) RADA-16): 0
- IL-1ra (IL-1F3) release (10 mcg (10 μg/well) RADA-16): 0
- IL-2 release (10 mcg (10 μg/well) RADA-16): 0
- IL-4 release (10 mcg (10 μg/well) RADA-16): 0
- IL-5 release (10 mcg (10 μg/well) RADA-16): 0
- IL-6 release (10 mcg (10 μg/well) RADA-16): 0
- IL-8 (CXCL8) release (10 mcg (10 μg/well) RADA-16): 0
- IL-10 release (10 mcg (10 μg/well) RADA-16): 0
- IL-12 p 70 release (10 mcg (10 μg/well) RADA-16): 0
